Where two headings read alike, the source gives them in different places.

For series [1], the system named is TNF-α release in LPS-activated human peripheral blood mononuclear cells (PBMC). In words: LPS-induced TNF-α release from human PBMC. The conditions noted are these: for TNF-α: LPS-stimulated PBMC. Type of series: cell-based. An excerpt:
(§1) The ability of GMCY to inhibit release of pro-inflammatory cytokines (TNF-α and IL-1) in LPS-activated human peripheral blood mononuclear cells (PBMC) has been investigated.

The test system of series [2] is acute inflammation. The following applies: Example 111 of WO 2004/000333; cited from earlier work.
Series [3] has as its system capsaicin-induced neurogenic inflammation (ear oedema). As to the kind of experiment: Capsaicin-induced ear oedema (neurogenic inflammation) model in mice. The following applies: for % relative ear oedema (2. app): co-administered with capsaicin 250 μg/ear, 15 min after second capsaicin application; for % inhibition of ear oedema: after second capsaicin application, vs vehicle. Type of series: in vivo, NMRI mice. An excerpt:
Effect on capsaicin-induced neurogenic inflammation in mice and binding to the TRP vanillioid receptor.
The mechanism of cutaneous neurogenic inflammation is connected with the release of neuropeptides from sensory nerve endings. The neuropeptide substance P is believed to play a major role in inducing an inflammatory response by affecting different inflammatory cells.

Series [4] has as its target T1, Fatty acid amid hydrolase (FAAH) (Rattus norvegicus, UniProt P97612).
T1 construct: source is rat brain; tissue MDS Pharma Services; host or cells: rat brain
T1 sequence (P97612 1-579): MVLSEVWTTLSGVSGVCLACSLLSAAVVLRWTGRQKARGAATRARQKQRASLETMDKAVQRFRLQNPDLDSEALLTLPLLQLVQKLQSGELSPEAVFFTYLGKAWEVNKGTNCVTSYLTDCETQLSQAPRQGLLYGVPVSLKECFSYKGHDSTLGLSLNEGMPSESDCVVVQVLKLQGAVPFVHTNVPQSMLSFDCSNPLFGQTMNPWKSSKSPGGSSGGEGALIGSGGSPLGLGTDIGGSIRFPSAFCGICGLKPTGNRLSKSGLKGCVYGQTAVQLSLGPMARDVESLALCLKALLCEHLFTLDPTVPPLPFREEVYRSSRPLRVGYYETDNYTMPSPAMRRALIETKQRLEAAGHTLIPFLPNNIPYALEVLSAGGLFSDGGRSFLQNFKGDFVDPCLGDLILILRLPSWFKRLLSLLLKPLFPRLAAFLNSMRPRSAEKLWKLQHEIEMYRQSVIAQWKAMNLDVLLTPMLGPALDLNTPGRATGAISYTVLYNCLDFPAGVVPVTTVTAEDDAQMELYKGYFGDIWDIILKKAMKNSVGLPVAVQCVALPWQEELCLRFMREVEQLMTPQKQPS
As to the kind of experiment: FAAH in vitro enzyme assay (MDS Pharma Services). Type of series: biochemical. The following applies: rat brain source; substrate Anandamide+[3H]Anandamide. On the procedure:
The assay is conducted using the following test conditions; source is rat brain, substrate is Anandamide+[3H]Anandamide, the reation is[3H]Anandamide→[3H]Ethanolamine+Arachidonic acid and the quantitation is performed on [3H]Ethanolamine using a test concentration usually of about 10 μM.

Series [5] deals with T2, vanilloid receptors (Rattus norvegicus, UniProt O35433).
T2 construct: The tissue used in this assay was rat vas deferens, field stimulated; tissue MDS Pharma Services; host or cells: rat vas deferens
In words: In vitro radioligand binding assay for vanilloid receptors (MDS Pharma Services). The conditions noted are these: rat vas deferens, field stimulated. An excerpt: Literature reference to this assay is Wardle, K A et al. J PharmPharmacol. 48:285, 1996.

For series [6], the system named is IL-6 release in LPS-activated human peripheral blood mononuclear cells (PBMC). In words: LPS-induced IL-6 release from human PBMC. The conditions noted are these: physiologically relevant concentrations. Type of series: cell-based.
The target in series [7] is T3, Protein tyrosine kinase enzyme Syk (Homo sapiens, UniProt P43405).
T3 construct: MDS Pharma assay no 174200
As to the kind of experiment: Protein tyrosine kinase Syk inhibition (MDS Pharma, assay no 174200). Type of series: biochemical.

The target in series [8] is T4, human PPARα (Homo sapiens, UniProt Q07869).
T4 construct: host or cells: HEK 293-T
T4 sequence (Q07869 239-466 limits assumed): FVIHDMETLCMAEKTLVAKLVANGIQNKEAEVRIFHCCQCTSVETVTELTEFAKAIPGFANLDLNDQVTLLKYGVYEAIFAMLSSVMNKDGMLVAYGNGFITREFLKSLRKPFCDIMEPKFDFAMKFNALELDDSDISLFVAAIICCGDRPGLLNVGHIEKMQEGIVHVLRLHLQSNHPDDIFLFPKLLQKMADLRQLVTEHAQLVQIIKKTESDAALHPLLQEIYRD
In words: PPARα agonism, Gal4-luciferase transactivation assay in HEK 293-T. Type of series: cell-based. As for the experimental part: Effect of GMCY and glyceryl fatty acid esters of higher acid chain length on PPARα agonism.
Agonism of PPARα can be tested by commercially available assays such as by Indigo Biosciences). The test substance is dissolved in DMSO and serial dilutions in DMSO were prepared. A plasmid was formed by fusing a ligand-binding domain of human PPARα, to a DAN-binding domain of the yest transcription factor Gal4 under the control of the SV40 promoter. This plasmid also encoded the UAS-firefly luciferase reporter under the control of the Gal4 DNA response element. Cell-cultures and transactivation assays were HEK 293-T fibroblast (ATCC Manassas, Va.) which were cultured in high-glucose Dulbecco's Minimal Essential Medium (DMEM) supplemented with 10% fetal bovine serum (FBS, Sigma), 0.2 mg/ml streptomycin and 200 U/ml penicillin (Gibco Grand Island, N.Y.). Cells were transfected with plasmid DNA using Lipofectamine reagent (In Vitrogen, Carlsbad, Calif.) using the manufacturers recommended procedures. Sixteen hours after treatment, the cells were lysed with passive lysis buffer (Promega, Madison, Wis.) and a Tecan GeniousPro (Research Triangle Park, N.C.). The fold induction of normalised luciferase activity was calculated relative to DMSO, DMSO-treated cells.

Series [9] concerns IL-1β release in LPS-activated human peripheral blood mononuclear cells (PBMC). As to the kind of experiment: LPS-induced IL-1β release from human PBMC. Also on record: IL-1β: unit not given here. Type of series: cell-based. The conditions noted are these: for IL-1β: LPS-stimulated PBMC.
Description: as §1

The test system of series [10] is skin. In words: Skin tolerability of dermatological compositions. The following applies: higher doses. An excerpt:
Therefore, in current interesting embodiments of the invention, the dermatological composition comprises for reasons of safety and convenience a maximal dose of GMCY or an analogue thereof in an amount of 5% of GMCY or an analogue thereof by weight of the dermatological composition, such as in a maximum doses of 4.5%, 4%, 3.5%, 3%, 2.5%, 2%, 1.5%, 1.25 1%, 0.8, 0.6 and 0.5% of GMCY or an analogue thereof by weight of the dermatological composition.

Series [11] concerns the target T1, Fatty acid amid hydrolase (FAAH). The conditions noted are these: reference compound of the assay; cited from earlier work.
Setting [12] is: physiologically relevant concentrations.

T2 sequence (O35433 whole entry): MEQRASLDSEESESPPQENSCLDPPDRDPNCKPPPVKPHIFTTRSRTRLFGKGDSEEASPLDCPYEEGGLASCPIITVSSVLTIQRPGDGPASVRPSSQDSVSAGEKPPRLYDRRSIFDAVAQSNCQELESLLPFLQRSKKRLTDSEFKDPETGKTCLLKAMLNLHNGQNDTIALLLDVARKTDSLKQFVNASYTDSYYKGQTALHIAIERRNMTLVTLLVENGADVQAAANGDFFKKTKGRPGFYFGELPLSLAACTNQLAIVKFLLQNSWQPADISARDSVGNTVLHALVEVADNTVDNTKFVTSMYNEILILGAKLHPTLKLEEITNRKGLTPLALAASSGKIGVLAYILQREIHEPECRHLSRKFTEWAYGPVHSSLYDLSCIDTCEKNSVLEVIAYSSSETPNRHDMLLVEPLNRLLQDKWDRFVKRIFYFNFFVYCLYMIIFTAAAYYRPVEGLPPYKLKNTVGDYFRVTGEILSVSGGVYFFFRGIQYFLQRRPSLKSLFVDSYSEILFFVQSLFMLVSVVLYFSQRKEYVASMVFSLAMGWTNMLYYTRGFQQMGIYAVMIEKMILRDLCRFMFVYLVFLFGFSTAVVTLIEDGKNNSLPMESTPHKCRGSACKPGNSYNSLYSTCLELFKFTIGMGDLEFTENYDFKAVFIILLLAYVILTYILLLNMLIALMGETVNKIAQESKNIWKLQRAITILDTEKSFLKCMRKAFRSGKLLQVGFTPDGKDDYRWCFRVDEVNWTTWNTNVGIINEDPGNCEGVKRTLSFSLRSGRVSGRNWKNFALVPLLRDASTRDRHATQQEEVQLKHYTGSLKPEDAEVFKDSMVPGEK

In [1] (Dexamethasone control, concentration not given), `C[C@@H]1C[C@H]2[C@@H]3CCC4=CC(=O)C=C[C@]4(C)[C@@]3(F)[C@@H](O)C[C@]2(C)[C@@]1(O)C(=O)CO` [Dexamethasone, reference compound] gave a TNF-α of 87.
Consider `CCCCCCCC(=O)OCC(O)CO` (racemic) [GMCY, 1-glyceryl monocaprylate], for which the “effect on acute inflammation” value in series [2] is “any effect could not be proven statistically”. Besides, the “% relative ear oedema (2. app)” value in series [3] (100 μg/ear topical) was 15.8%; in [3] (450 μg/ear topical), 15.3%; in [3] (2000 μg/ear topical) it was 15.0%. Besides, the figures for the “% inhibition of ear oedema” value in series [3] (100 μg/ear), in series [3] (450 μg/ear) and in [3] (2000 μg/ear) were 32.6%, 34.4% and 36.0%, respectively. The “reduction of inflammation in comparison to the vehicle control” value in [3] (after repeated application of capsaicin, treated groups overall) is “about 35%”. The IC50 came out at 53 µM in series [4] and 61 µM in series [7]. In series [5], the “binding to the vanilloid receptors” value is “does not bind”. Also, the “inhibition of LPS induced release of IL-6” value in series [6] is “dose dependently inhibit”. Besides, the TNF-α is 230.2 in [1] (1 μM); 105 in series [1] (10 μM); 73.7 in series [1] (100 μM); 38.5 in series [1] (1000 μM); 6.9 in series [1]. In series [1] (setting [12]), the “inhibition of LPS induced release of TNF-α” value was “dose dependently inhibit”. In addition, the PPARα agonism entry in series [8] is listed as “did not act as an agonist”. In addition, the IL-1β is recorded as 459.2 in series [9] (1 μM); 320.9 in series [9] (10 μM); 238.6 in [9] (100 μM); 124.5 in series [9] (1000 μM); 8.2 in series [9] (10000 μM). For the same compound, the “inhibition of LPS induced release of IL-1β” value in series [9] (setting [12]) is “dose dependently inhibit”. In addition, the “skin burning / irritation” value in [10] was “causes burning or weak irritation in higher doses”.
Turning to `CCCCCCCCCC(=O)OCC(O)CO` (centres unmarked) [1-glyceryl monocaprate, reference compound], in series [3] (all treated groups (2000, 450, 100 μg/ear)), the “inhibitory effect on neurogenic inflammation (ear oedema vs vehicle control)” value is “no inhibitory effect”.
Consider `CCCCCCCC/C=C\CCCCCCCC(=O)C(F)(F)F` [Oleyl Trifluromethyl Ketone], for which the IC50 in [11] is 0.029 µM.

By IC50 is commonly meant the concentration at which inhibition is half-maximal.

The values are drawn from patent US20080167375A1, “TREATMENT OF CUTANEOUS NEUROGENIC INFLAMMATION” (Astion Pharma A/S, priority 2006, published 2008).
